Here are results for one molecule from patent US11419806B2, “Prebiotic oral care methods using a saccharide” (Colgate-Palmolive Company, priority 2013, dated 2022).

Common to all, as to format: cell-based
The test system of one assay is Streptococcus sobrinus. Kind of assay: Phenotype microarray metabolic activity. To be noted: S sobrinus. The procedure:
(§1) The extent of metabolic activity of the tested bacteria in the presence of the above-mentioned saccharides after 24 hours and 48 hours was investigated through a high throughput phenotype microarray system (PM) for microbial cells (Biolog Inc.). Each PM can contain up to 95 different biochemical compounds (e.g. saccharides) that may act as substrates for bacteria as well as one negative control, not containing the substrates. Microarray plates were used in which the different wells of each plate were pre-loaded (by the manufacturer, Biolog Inc.) with different saccharides to be tested. Each bacterial species was tested using a separate microarray plate. Thus, a single bacterial species was tested with a variety of saccharides on each particular plate. The microarrays are based on redox technology, using cell respiration as a universal reporter. Active cell respiration results in the reduction of a tetrazolium dye and in the formation of a strong color—for example, when using the tetrazolium dye “Biolog Redox Dye Mix D”, the color changes from transparent/colorless to purple when the dye is reduced. The observation of this color change indicates which of the substrates improve the metabolic activity and health of the cells.
(§2) Each bacterial species was collected from blood agar plates (incubated for 48 hours anaerobically at 37° C.) and transferred to an IF-0 Base inoculation fluid (Biolog Inc.), which is a nutritionally poor medium. The resulting cell suspension was adjusted to a transmittance of 42% (relative to the transmittance of the base inoculation fluid with no bacterial species present) at 492 nm using a BioRad SmartSpec 3000 Photometer (the adjustment being effected by adding either further inoculation fluid or further bacteria until the transmittance of 42% was achieved). A 1:5 dilution of this suspension was prepared by mixing 3 mL of the 42% transmittance cell suspension with 15 mL of an inoculation fluid (which inoculation fluid was formed by mixing 11.6 mL sterile water, 62.5 mL IF-0 base inoculation fluid and 0.9 mL of the tetrazolium dye “Biolog Redox Dye mix D”), resulting in a final cell density which was equal to 85% transmittance using a BioRad SmartSpec 3000 Photometer. For each of the saccharides tested, the microarray plate (obtained from the supplier (Biolog Inc.) with saccharides already present in the relevant wells in powder form) was directly inoculated with 100 μL/well of this 85% transmittance cell suspension.
(§3) All plates were incubated in an anaerobic atmosphere at 37° C. Color changes were measured spectrophotometrically at 492 nm (Thermo Scientific Multiskan Ascent) at 24 hrs and 48 hrs using the same plate at both time points. […] After 24 hrs and 48 hrs under continuous shaking in a Multiscan microplate reader, the optical density (OD) of the synthetic medium at 24 hours and 48 hours was measured (using the microplate reader) at a wavelength of 492 nm for each combination of bacterium/saccharide, and for each of their respective controls (i.e. which contained the particular bacterium but no saccharide).
(§4) The experiment was carried out three times for each combination of bacterium with saccharide, with each repeat being carried out on a different day (thus providing three biological replicas). The controls were also carried out three times, as above. The values shown are the average (mean) of the three single values obtained (as detailed above) for each combination of bacterium with saccharide, at 24 hrs and at 48 hrs.

A further assay concerns Fusobacterium nucleatum. Kind of assay: Phenotype microarray metabolic activity. As to conditions: F nucleatum. As to the method:
as §1, §2, §3, §4

The subject of a further assay is Actinomyces naeslundii. Kind of assay: Phenotype microarray metabolic activity. As to conditions: A naeslundii. As to the method:
as §1, §2, §3, §4

The next assay deals with Streptococcus salivarius. Kind of assay: Phenotype microarray metabolic activity. To be noted: S salivarius. The procedure:
as §1, §2, §3, §4

For the next assay, the system named is Porphyromonas gingivalis. Kind of assay: Phenotype microarray metabolic activity. To be noted: P gingivalis. The procedure:
as §1, §2, §3, §4

The test system of a further assay is Actinomyces viscosus. Put plainly: Phenotype microarray metabolic activity. To be noted: A viscosus. The procedure:
as §1, §2, §3, §4

The test system of another assay is Streptococcus mutans. Put plainly: Phenotype microarray metabolic activity. As to conditions: S mutans. As to the method:
as §1, §2, §3, §4

A further assay concerns Capnocytophaga sputigena. Kind of assay: Phenotype microarray metabolic activity. To be noted: C sputigena. The procedure:
as §1, §2, §3, §4

The next assay deals with Veillonella parvula. Kind of assay: Phenotype microarray metabolic activity. To be noted: V parvula. The procedure: as §1, §2, §3, §4
For assay [1], the system named is beneficial oral bacteria and pathogenic oral bacteria. Kind of assay: Twenty-four hour biofilm growth, overall prebiotic assessment. As to conditions: concentrations of 5, 10, 20 and 25 μmol/ml. An excerpt:
Substrates that were able to increase the biofilm mass of at least one of the above beneficial bacteria while not or only minimally increasing the biofilm mass of the pathogenic bacteria are considered to be prebiotic compounds.
The increase in biofilm formation of the tested bacteria in response to selected saccharides (D-turanose, D-lactitol, myo-inositol, and N-acetyl-D-mannosamine) was investigated by setting up biofilm growth assays in a nutritionally rich medium (brain heart infusion broth (BHI), Oxoid), over 24 hours. Late exponential growth phase liquid cultures were prepared by transferring the respective bacterium from blood agar plates to BHI and overnight incubation at 37° C. in an anaerobic atmosphere for A. viscosus, V. parvula, P. gingivalis, P. intermedia, T. forsythia, A. naeslundii, and C. sputigena, and in a 5% CO2 environment for S. salivarius, S. sanguinis, S. mitis, A. actinomycetemcomitans, S. mutans, and S. gordonii. Overnight cultures were transferred to BHI and adjusted to a concentration of 1×10^7 CFU/ml by measuring the optical density at 600 nm (OD600) (BioRad SmartSpec 3000). For each strain, 200 μl of the bacterial suspension was added to a 96-well plate containing 20 μl of the respective saccharides. Final concentrations of the saccharides were set to 5, 10, 20 and 25 μmol/ml. […] Additionally, for each bacterium tested, a background control, to correct for background staining, was added. This background control contained the bacterium tested and 0.03 weight % chlorhexidine, as an antiseptic. Plates were incubated as previously described. After 24 hrs the supernatant was removed from the wells of the plates. The wells were washed twice with 1×100 μL PBS (phosphate buffered saline), fixed for 20 minutes with 96% vol. ethanol (96% vol. solution in water) and the biofilm retained at the bottom of the wells was stained with 1 weight % crystal violet (1 weight % solution in water). The bound dye was dissolved with 5% vol. acetic acid (5% vol. solution in water). Quantification of the stained biofilm was performed by measuring the absorbance at 630 nm using a Multiskan Ascent microplate reader (Thermo Scientific).
The experiment was carried out on three different days (thus providing 3 biological replicas) and each day the experiment was carried out in quadruple (thus providing 4 technical replicas) for each combination of bacterium with saccharide and for each control. For each day and for each combination, the average (mean) of the values obtained (as detailed above) for the four technical replicas was calculated to provide a single value for each combination on each day. The values shown in Tables 7a, 7b, 8a, 8b, below, are the average (mean) of the three single values obtained for each combination of bacterium with saccharide. […]

`CC(=O)N[C@H](C=O)[C@@H](O)[C@H](O)[C@H](O)CO` [N-acetyl-D-mannosamine, 2-acetamido-2-deoxy-D-mannose]: the “metabolic activity: OD 492 nm divided by OD of control (control = 1)” value (“metabolic activity: OD 492 nm divided” for short) in the assay with Streptococcus sobrinus (24 hrs) came to 1.1993; in the assay on Streptococcus sobrinus (48 hrs), 1.1453; in the assay with Fusobacterium nucleatum (24 hrs), 1.0897; in the assay with Fusobacterium nucleatum (48 hrs) it was 1.0886; with Actinomyces naeslundii (24 hrs) it was 1.4397; in the assay with Actinomyces naeslundii (48 hrs) it was 1.7022. For the same molecule, the “metabolic activity: OD 492 nm divided” value in the assay on Streptococcus salivarius (24 hrs) came to 1.0589; in the assay on Streptococcus salivarius (48 hrs), 0.9795; in the assay with Porphyromonas gingivalis (24 hrs) it was 0.7968; in the assay on Porphyromonas gingivalis (48 hrs) it was 0.8296; in the assay with Actinomyces viscosus (24 hrs), 0.9778; in the assay on Actinomyces viscosus (48 hrs), 1.0151. The “metabolic activity: OD 492 nm divided” value was determined as 1.0429 in the assay on Streptococcus mutans (24 hrs); 1.0176 in the assay with Streptococcus mutans (48 hrs); 1.1116 in the assay with Capnocytophaga sputigena (24 hrs); 1.0780 with Capnocytophaga sputigena (48 hrs); 0.9189 with Veillonella parvula (24 hrs); 0.9284 in the assay with Veillonella parvula (48 hrs). For the same molecule, the “prebiotic effects (biofilm growth, threshold value 1.6)” value in assay [1] is on record as “exhibited prebiotic effects”.
